This is an account of results in patent publication US6794396B2, “Substituted pyridines useful for inhibiting cholesteryl ester transfer protein activity” (Pharmacia Corporation, priority 1998, dated 2004).

For orientation: pIC50 means the negative decadic logarithm of the IC50, by convention in mol/L.

pIC50: −log10 of the molar value.

In one assay the target is T1, CETP (Homo sapiens, UniProt P11597).
T1 construct: made in house; host or cells: CHO cells (serum-free conditioned medium)
T1 sequence (P11597 18-493): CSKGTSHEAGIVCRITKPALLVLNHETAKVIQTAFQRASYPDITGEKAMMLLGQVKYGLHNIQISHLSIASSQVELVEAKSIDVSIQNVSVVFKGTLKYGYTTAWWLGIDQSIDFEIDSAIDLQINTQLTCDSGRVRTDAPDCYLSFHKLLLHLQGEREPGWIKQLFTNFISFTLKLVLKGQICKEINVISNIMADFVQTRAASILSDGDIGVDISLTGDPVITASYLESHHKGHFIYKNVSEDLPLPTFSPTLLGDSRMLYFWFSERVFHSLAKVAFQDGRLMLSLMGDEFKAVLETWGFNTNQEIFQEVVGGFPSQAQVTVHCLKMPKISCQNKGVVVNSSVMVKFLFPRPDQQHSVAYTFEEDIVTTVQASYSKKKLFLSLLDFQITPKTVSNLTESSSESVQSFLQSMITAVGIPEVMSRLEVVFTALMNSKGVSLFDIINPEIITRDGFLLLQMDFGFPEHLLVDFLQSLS
The assay is described as follows: CETP activity in vitro: transfer of [3H]CE from HDL donor to LDL acceptor particles. It counts as biochemical. Conditions: 10 μm. Put shortly:
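CETP from conditioned medium of CETP-transfected CHO cells incubated with [3H]CE-labelled HDL donor and LDL acceptor, pH 7.4 Tris buffer with NaCl, EDTA and 1% BSA, 2 h at 37 °C. LDL precipitated with dextran sulfate/MgCl2, filtered, and transferred radioactivity counted; IC50 reported.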
`COC(=O)c1c(C(F)F)nc(C(F)(F)F)c(SC2CCCO2)c1CC(C)C` (centres unmarked) [Compound 150, Methyl 2-(Difluoromethyl)-4-(2-methylpropyl)-5-[(tetrahydro-2-furyl)thio]-6-(trifluoromethyl)-3-pyridinecarboxylate]: the “% transfer at 10 μm” value is 95^D %.
Still for that read-out and setting: the figure for `COC(=O)c1c(C(F)F)nc(C(F)(F)F)c(SC(C)OC)c1CC(C)C` (centres unmarked) [Compound 147, Methyl 2-(Difluoromethyl)-4-(2-methylpropyl)-5-(1-methoxyethylthio)-6-(trifluoromethyl)-3-pyridinecarboxylate] is 15^D %.

Still in this assay, the particulars now being: 50% inhibition of [3H]CE transfer from HDL to LDL, 2 hours at 37° C.; read-out: IC50(μm).
For `CCOC(=O)c1c(C(F)(F)F)nc(C(F)(F)F)c(C)c1Sc1ccc(C(C)C)cc1` [Compound 11, Ethyl 2,6-Bis(trifluoromethyl)-4-[4-(isopropylphenyl)thio]-5-methyl-3-pyridinecarboxylate], the negative logarithm of the IC50 (pIC50) is 4.60.
Still for that read-out and setting: the figure for `CCOC(=O)c1c(C(F)(F)F)nc(C(F)(F)F)c(C(=O)OC)c1OCC` [Compound 52] is 4.30; for `COC(=O)c1c(C(F)(F)F)ncc(C(=O)c2cnc(C(F)(F)F)c(C(=O)OC)c2OC(C)C)c1OC(C)C` [Compound 54] it is 4.30; for `COC(=O)c1c(C(F)F)nc(C(F)(F)F)c(C(=O)OC)c1Cc1ccnc(SC)n1` [Compound 67, Dimethyl 2-(Difluoromethyl)-4-{[(2-methylthio)pyrimidin-4-yl]methyl}-6-(trifluoromethyl)-3,5-pyridinedicarboxylate] it is 4.22.

Still in this assay, the particulars now being: 100 μm.
Take `COC(=O)c1c(C(F)F)nc(C(F)(F)F)c(SCC(N)=O)c1CC(C)C` [Compound 145]: the “% Transfer @ 100 μm” value is 64%.

The same assay, now with this note: 2 h; read-out: % Transfer @ 100 μm.
In the case of `CCOC(=O)c1c(C(F)(F)F)ncc(C(=O)OC(C)C)c1O` [Compound 101, 3-Ethyl 5-Isopropyl 4-hydroxy-2-(trifluoromethyl)-3,5-pyridinedicarboxylate], the remaining activity at 100 µM was found to be 71%.

The same assay, now with this note: @ 100 μm; footnotes A and B of Table 6.
Turning to `COC(=O)c1c(C(F)F)nc(C(F)(F)F)c(CSc2ccc(NC(C)=O)cc2)c1CC(C)C` [Compound 204, Methyl 5-[(4-(Acetylamino)phenyl)thiomethyl]-2-(difluoromethyl)-4-(2-methylpropyl)-6-(trifluoromethyl)-3-pyridinecarboxylate], the CE transferred entry is given as “^B80% CE transferred @ 100 μm”.

Staying with this assay, now noted: IC50(μm), 50% inhibition of [3H]CE transfer from HDL to LDL, 2 hours at 37° C.
In turn, `COC(=O)c1c(C(F)F)nc(C(F)(F)F)c(SCSC)c1CC(C)C` [Compound 33, Methyl 2-(Difluoromethyl)-4-(2-methylpropyl)-5-(methylthiomethylthio)-6-(trifluoromethyl)-3-pyridinecarboxylate] had a negative-log IC50 (pIC50) of 4.35.
Still for that read-out and setting: in the case of `COC(=O)c1c(C(F)F)nc(C(F)(F)F)c(N=C(SC)SC)c1CC(C)C` [Compound 42, Methyl 5-{[Bis(methylthio)methylene]amino}-2-(difluoromethyl)-4-(2-methylpropyl)-6-(trifluoromethyl)-3-pyridinecarboxylate] it was 4.30.
On the same count and under the same terms, in the case of `CCSc1c(C(F)(F)F)nc(C(F)F)c(C(=O)OC)c1C1CCC1` [Compound 66] it was 4.22; in that of `COC(=O)c1c(C(F)F)nc(C(F)(F)F)c(C(=O)SC)c1CC(C)C` [Compound 69], 4.19; in that of `COC(=O)c1c(C(F)F)nc(C(F)(F)F)c(C(=O)OC)c1CCC(C)C` [Compound 49], 4.30.
Still for that read-out and setting: in the case of `COC(=O)c1c(C(F)F)nc(C(F)(F)F)c(N=S=O)c1CC(C)C` [Compound 1] it was 5.70; in that of `CCOC(=O)c1c(C(F)F)nc(C(F)(F)F)c(C(=O)OCC)c1C1CCCCC1` [Compound 38], 4.30.

Staying with this assay, now noted: Table 6, compounds of formula T-6; read-out: IC50.
On to `COC(=O)c1c(C(F)F)nc(C(F)(F)F)c(CSc2ccc(NC(C)=O)cc2)c1CC(C)C` [Compound 204, Methyl 5-[(4-(Acetylamino)phenyl)thiomethyl]-2-(difluoromethyl)-4-(2-methylpropyl)-6-(trifluoromethyl)-3-pyridinecarboxylate], for which the pIC50 is below 4.00.
Consider `COC(=O)c1c(C(F)F)nc(C(F)(F)F)c(CSc2nc3ccccc3o2)c1CC(C)C` [Compound 205, Methyl 5-[(Benzoxazol-2-yl)thiomethyl]-2-(difluoromethyl)-4-(2-methylpropyl)-6-(trifluoromethyl)-3-pyridinecarboxylate], for which the pIC50 was 4.70.
On the same count and under the same terms, in the case of `COC(=O)c1c(C(F)F)nc(C(F)(F)F)c(CSc2c(F)c(F)c(F)c(F)c2F)c1CC(C)C` [Compound 194, Methyl 5-[(Pentafluorophenyl)thiomethyl]-2-(difluoromethyl)-4-(2-methylpropyl)-6-(trifluoromethyl)-3-pyridinecarboxylate] it was 4.52; in that of `COC(=O)c1c(C(F)F)nc(C(F)(F)F)c(CSc2ccccn2)c1CC(C)C` [Compound 216, Methyl 5-[(2-Pyridyl)thiomethyl]-2-(difluoromethyl)-4-(2-methylpropyl)-6-(trifluoromethyl)-3-pyridinecarboxylate], 4.40.
`COC(=O)c1c(C(F)F)nc(C(F)(F)F)c(CSc2nc3ccccc3[nH]2)c1CC(C)C` [Compound 210, Methyl 5-[(Benzimidazol-2-yl)thiomethyl]-2-(difluoromethyl)-4-(2-methylpropyl)-6-(trifluoromethyl)-3-pyridinecarboxylate]: the pIC50 was 4.70.
Still for that read-out and setting: the figure for `COC(=O)c1c(C(F)F)nc(C(F)(F)F)c(CSc2c(F)c(F)c(C(F)(F)F)c(F)c2F)c1CC(C)C` [Compound 196, Methyl 5-[(2,3,5,6-Tetrafluoro-4-(trifluoromethyl)phenyl)thiomethyl]-2-(difluoromethyl)-4-(2-methylpropyl)-6-(trifluoromethyl)-3-pyridinecarboxylate] is 4.70.

Still in this assay, the particulars now being: Table 7, compounds of formula T-7; read-out: IC50.
As to `COC(=O)c1c(C(F)F)nc(C(F)(F)F)c(SCc2c(F)c(F)c(F)c(F)c2F)c1CC(C)C` [Compound 244], the pIC50 is 4.30.
Turning to `COC(=O)c1c(C(F)F)nc(C(F)(F)F)c(SCc2ccc3c(c2)C(C)(C)CCC3(C)C)c1CC(C)C` [Compound 245, Methyl 5-[(1,2,3,4-tetrahydro-1,1,4,4-tetramethyl-6-naphthyl)methylthio]-2-(difluoromethyl)-4-(2-methyl-propyl)-6-(trifluoromethyl)-3-pyridinecarboxylate], the pIC50 was 4.52.
Still for that read-out and setting: in the case of `COC(=O)c1c(C(F)F)nc(C(F)(F)F)c(SCc2ccc(OCc3ccccc3)c(OCc3ccccc3)c2)c1CC(C)C` [Compound 222] it was 4.82.
Still for that read-out and setting: in the case of `COC(=O)c1c(C(F)F)nc(C(F)(F)F)c(SCc2ccccn2)c1CC(C)C` [Compound 233, Methyl 5-[(2-pyridyl)methylthio]-2-(difluoromethyl)-4-(2-methylpropyl)-6-(trifluoromethyl)-3-pyridinecarboxylate] it was 4.22.
The same measure, in the same setting: in the case of `COC(=O)c1c(C(F)F)nc(C(F)(F)F)c(SCc2ccc3c(c2Cl)OCO3)c1CC(C)C` [Compound 226, Methyl 5-[(2-Chloro-3,4-methylenedioxyphenyl)methylthio]-2-(difluoromethyl)-4-(2-methylpropyl)-6-(trifluoromethyl)-3-pyridinecarboxylate] it was 4.22.

The assay is the same for the next values; noted with them: Table 8; read-out: IC50.
For `C=CC(O)c1c(C(F)F)nc(C(F)(F)F)c(C(=O)c2ccc(C(F)(F)F)cc2)c1-c1ccc(F)cc1` (centres unmarked) [Compound 284], the pIC50 is 4.64.
Still for that read-out and setting: in the case of `O=C(c1ccc(C(F)(F)F)cc1)c1c(C(F)(F)F)nc(C(F)F)c(CO)c1-c1ccc(F)cc1` [Compound 292] it was 4.79; in that of `CC(C)c1ccc(C(F)c2c(C(F)(F)F)nc(C(F)F)c(CO)c2-c2ccccc2)cc1` (centres unmarked) [Compound 265], 4.22.
Same read-out and setting: in the case of `CCOC(=O)c1c(C(F)(F)F)nc(C(F)F)c(C(F)c2ccc(Cl)cc2)c1-c1ccccc1` (centres unmarked) [Compound 267] it was 4.15.
Still for that read-out and setting: the figure for `CCOC(=O)c1c(C(F)(F)F)nc(C(F)F)c(C(O)c2ccc(C(F)(F)F)cc2)c1-c1ccccc1` (centres unmarked) [Compound 296] is below 4.00.
